The NIST ThermoML archive (doi:10.1016/j.tca.2011.10.013)

Test: mn = molality of the nth substance listed, in mol/kg
Settings: 101 kPa, Liquid; for speed of sound: Sing-around technique in a fixed-path interferometer; for mass density: Vibrating tube method

OC[C@H]1O[C@@](CO)(O[C@H]2O[C@H](CO)[C@@H](O)[C@H](O)[C@H]2O)[C@@H](O)[C@@H]1O [D-sucrose] + O
m1 = 1.274
Settings	mass density [kg/m3]	speed of sound [m/s]
298.15 K	1127.37	1607.9
303.15 K	1125.37	1615.6
308.15 K	1123.2	1621.9
313.15 K	1120.73	1627
318.15 K	1118.18	1630.8
323.15 K	1115.44	1633.3

O=C[C@H](O)[C@@H](O)[C@H](O)[C@H](O)CO [D-glucose] + O
m1 = 1.13
Settings	mass density [kg/m3]	speed of sound [m/s]
298.15 K	1065.07	1564.8
303.15 K	1063.3	1574.3
308.15 K	1061.36	1582.4
313.15 K	1059.24	1589.1
318.15 K	1056.98	1594.4
323.15 K	1054.25	1598.5
